Results from a melting point compilation (Tetko et al.; mined from patent text by program, amines drawn as free bases though some values may be those of a salt).

| melting point [°C] | SMILES |
| --- | --- |
| 112 | CC(=O)N1CCC(C)(C)c2cc(F)cc(CCN3CCN(c4noc5ccccc45)CC3)c21 |
| 200 to 202 | O=c1[nH]c(C(F)(F)C(F)(F)F)nc2ncc(Br)cc12 |
| 171 to 172 | COc1ccc(N2CCOCC2)c2sc(NC(=O)N3CCCOCC3)nc12 |
| 188 to 189 | CC(C)n1nc(-c2nc(NCCN(C)C)c(N)nc2-c2ccccc2)ccc1=O |
| 117 to 119 | CCCCCCCCNc1nc(NCC(O)C2CC(C)(C)NC(C)(C)C2)nc(NCC(O)C2CC(C)(C)NC(C)(C)C2)n1 (centres undefined) |
| 117 to 118 | Clc1ccc2c(c1)CCC(N1CCCC1)=C2 |
| 189 to 190 | O=c1c2ccccc2ncn1NC(=S)Nc1ccc(Br)cc1 |
| 92 to 93 | NCCCCOc1cccc(CN2CCCCC2)c1 |
| 108 to 110 | CCOC(=O)C(=Cc1cccn2c(Br)c(C)nc12)N=[N+]=[N-] |
| 169 to 172 | CC(C)(C)C1=C(CO)N=NC1=O |
| 195 to 200 | CNCCCN(C)c1ccc2c(C(=O)NCC34CC5CC(CC(C5)C3)C4)c(Cl)ccc2n1 |
| 68 | O=C(NCC(F)(F)F)C1(CCCCN2CCN(c3ccc4cccc(Cl)c4n3)CC2)c2ccccc2Oc2ccccc21 |
| 230 to 232 | CC(=O)Nc1ccc(Oc2ccc3c(c2)OCC(=O)N3)cc1 |
| > 250 | O=C(O)c1cc(CC(C(=O)O)C(=O)O)c2ccccn2c1=O |
| 96 to 98 | COCCn1nc(CC(C)C)c2cn(Cc3cccc4ccccc34)cc2c1=O |
| 175 to 177 | NC(=O)c1nnn(Cc2cc(Br)cc(C(Cl)=C(Cl)Cl)c2)c1N |
| 154 to 156 | COc1cc(OC)c(C(=O)CCCCCl)cc1NC(=O)Nc1ccc(C(F)(F)F)cc1 |
| 60 to 75 | CN(C(=O)CCSC(c1ccccc1)(c1ccccc1)c1ccccc1)c1nnc(-c2cccnc2)s1 |
| 216 to 218 | COc1ccc(C2=NN(C3CCN(C(=O)N4CCNC4=O)CC3)C(=O)[C@H]3CC=CC[C@@H]23)cc1Cl (relative stereo) |
| 149 | CCOC(=O)c1nccc2c(C)c3c(cc12)c1cc(OC)ccc1n3CC |
| 198 to 201 | CCC(=O)Nc1c(N)cc(Br)cc1OCc1ccccc1 |
| 87.8 to 88.7 | CSc1cc2ccc(-c3ccccc3)cc2cc1OS(=O)(=O)C(F)(F)F |

| melting point [°C] | SMILES |
| --- | --- |
| 235 to 239 | CCn1cc(C)c(NS(=O)(=O)c2ccc(NC(C)=O)cc2)nc1=O |
| 220 to 222 | O=C(NC1CCN(C(=O)NCCC2(C(=O)NCC(F)(F)F)c3ccccc3-c3ccccc32)CC1)c1ccccc1 |
| 230 | COc1ccc2[nH]c3c(c2c1[N+](=O)[O-])CCC3O (centres undefined) |
| 184 | COC(=O)N1C(=O)c2ccccc2C1=O |
| 191 to 192 | COc1c(Cl)cc(N=C=S)cc1C(=O)Nc1c(C)cccc1C |
| 175 | N#Cc1cc(NC(=O)c2cc3ccccc3o2)ccc1OC1CCN(Cc2ccccc2)CC1 |
| 277 | O=C(O)CCc1cnn2c(=O)[nH]cnc12 |
| 184 to 186 | COc1cc(N2CCN([C@H]3CC[C@@H](c4cccs4)CC3)CC2)c2ncccc2c1 |
| 84 to 86 | C=CCn1c(CCl)nc(C(C)C)c1Sc1cccc(Cl)c1 |
| > 250 | CN1C(=O)C2(COc3cc4c(cc32)OCCO4)c2c(Oc3ncccc3C(F)(F)F)cccc21 (centres undefined) |
| > 300 | Cc1[nH]n(Cc2ccc(C(N)=O)cc2)c2nc(-c3ccncc3)nc(=O)c1-2 |
| 138 | C/C(=C\c1ccc(OC(C)C)cc1Oc1ncc(C(F)(F)F)cc1Cl)C(=O)NS(=O)(=O)NCCOC(C)C |
| 174 to 175 | Nc1nc2[nH]c(CCCCc3ccc(C(=O)N[C@@H](CCC(=O)O)C(=O)O)o3)cc2c(=O)[nH]1 |
| 103 to 106 | Cn1cc(C(=O)NCc2ccc(Cl)cc2)c(=O)c2cc(/C=C/CO)ccc21 |
| 102 to 103 | CC(=O)OCC(ON1C(C)(C)CC(OC(=O)C(C)(C)C)CC1(C)C)c1ccccc1 (centres undefined) |
| 78 to 79 | COC1OCC2C(=O)C3CCCCC3CC12 (centres undefined) |
| 174 | CCCNC(=O)C(O)C1c2ccccc2C(=O)N1c1ccc2ccc(Br)nc2n1 (centres undefined) |
| 243 to 244 | COC(=O)c1nc2cc(I)ccc2c(O)c1C(=O)OC |
| 165 to 167 | COC(=O)C1=C(C)NC(C)=C(C(=O)OCC2CCCO2)C1c1ccccc1Cl (centres undefined) |
| 94 to 95 | O=Cc1ccc(OCc2ccccc2)c(F)c1 |
| 125 | CC(=O)Nc1cc(C)c([N+](=O)[O-])cc1CCOC(C)=O |
| 118 to 123 | Cc1ncc([N+](=O)[O-])n1CCN1C(=O)C2CC=CCC2C1=O (centres undefined) |

| melting point [°C] | SMILES |
| --- | --- |
| 136 to 140 | Cc1cc(C)c(N2c3ccccc3Sc3cc(C=O)ccc32)c(C)c1 |
| 92 | COc1ccc(C2CCc3cc(OC)ccc3C2C#N)cc1 (centres undefined) |
| 93 to 96 | CN(C)CCNC(=O)c1ccc(-c2ccccc2CSCCOc2ccccc2)cc1 |
| 194 to 196 | CCOC(=O)CCc1nc2cc3c(cc2[nH]1)NC(=O)C3(C)C |
| 111 to 113 | O=[N+]([O-])c1ccc2c(c1)OC(CO)(CO)O2 |
| 169 to 171 | Cc1cnc(CNC(=O)c2ccnc(N3CCN(Cc4ccc(F)cc4)C3=O)c2)cn1 |
| 123 | C=CCn1c(C)nc2c(O)c(C(=O)[C@@H]3OC(C)(C)O[C@H]3c3ccccc3)ccc21 |
| 208 to 210 | Cc1cc(CO)n(CCCOc2cc3c(cc2C)OC2(CC(C)(C)c4cc(O)c(C)cc4O2)CC3(C)C)n1 (centres undefined) |
| 210 to 212 | O=C(c1ccc(Cl)cc1)n1c2c(c3ccccc31)CC(C(=O)O)(C(=O)O)CC2 |
| 206 to 209 | CC(=O)Nc1cnc(N2CCN(CCCC(=O)c3ccc(F)cc3)CC2)cc1NC(C)=O |
| 116 to 120 | CC(C)Oc1cc(CCCOc2cc(CCC(=O)O)n(C)n2)cc(COc2ccc(Cl)cc2Cl)c1 |
| 173 to 174 | COc1cc2c3c(c1O)CN(C)CC3c1ccccc1CC2 (centres undefined) |
| 222 to 224 | COc1ccc(-n2c(=O)cc(C(F)(F)F)n(C)c2=O)c2c1C(=O)C(C)(C)O2 |
| 195 to 197 | CCCNC(=N)NC(=O)NCc1ccccn1 |
| 210 to 211 | O=C1c2c(F)c(F)c(F)c(F)c2C(=O)N1c1ccccc1 |
| 182 to 184 | NC(=O)N1CCCC(=O)c2ccc(Cl)cc2CCC1=O |
| 184 to 187 | CCCc1nc2c(N)nc3cc(F)ccc3c2o1 |
| 200 to 202 | COCCc1sc2ncnc(N)c2c1-c1ccc(NC(=O)Cc2cccc(C)c2)cc1 |
| 115 to 117 | Cc1ccc(NC(=O)C(=O)N2CCC(Cc3ccccc3)CC2)cc1 |
| 168 to 170 | CN(C(=O)CN(C(=O)CNC(=O)OC(C)(C)C)c1ccccc1OCc1ccccc1)c1ccccc1 |
| 118 to 119 | Cc1cc(C)cc(Sc2c(C(C)C)nc(C=NN)n2C)c1 |

| SMILES | melting point [°C] |
| --- | --- |
| Cc1nn(-c2ccc(C#N)c(Cl)c2)c(C)c1Cc1ccc(C(=O)N2CCC(O)CC2)cc1 | 153 to 154 |
| CCNC(=NS(=O)(=O)c1ccc(Cl)cc1)N1CC(c2ccccc2)C(c2ccc(Cl)cc2)=N1 (single isomer, unassigned; (-)) | 172 to 175 |
| CCCCCCC(C)(C)c1ccc(C2=CC(O)CCC2)c(O)c1 (centres undefined) | 87 to 88 |
| CC1(C(F)(F)F)C(=O)NC(=O)NC1=O | 205 to 206 |
